# Reference: the supplement of paper PMC8920030
# Columns and labels:
# Details in all cases: growth mode: biofilm, 24 h; exposure time: 24 h
# tobramycin [1] = compound: T1, NC[C@H]1O[C@H](O[C@H]2[C@H](O)[C@@H](O[C@H]3O[C@H](CO)[C@@H](O)[C@H](N)[C@H]3O)[C@H](N)C[C@@H]2N)[C@H](N)C[C@@H]1O [tobramycin]; assay: minimum concentration of killing, 4-log CFU reduction of biofilm (MCK99.99); higher = more biofilm tolerance
# Method: (§1)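 Clinical P. aeruginosa isolates were grown as static biofilms for 24 h at 37 °C in LB in half-area 96-well plates, then exposed for 24 h to tobramycin at 1, 4, 16, 64, 256 or […]. Surviving CFU were counted by spotting serial dilutions. MCK is the lowest tested concentration giving the stated log reduction in CFU versus an untreated control; '>1024' means the reduction was not reached at the top dose, and 1 is the lowest dose tested (≤1).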
# tobramycin [2] = compound: T1, tobramycin; assay: minimum concentration of killing, 2-log CFU reduction of biofilm (MCK99); higher = more biofilm tolerance
# Method: as §1
# colistin [3] = compound: T2, CCC(C)CCCC(=O)N[C@@H](CCN)C(=O)N[C@H](C(=O)N[C@@H](CCN)C(=O)N[C@H]1CCNC(=O)[C@H]([C@@H](C)O)NC(=O)[C@H](CCN)NC(=O)[C@H](CCN)NC(=O)[C@H](CC(C)C)NC(=O)[C@@H](CC(C)C)NC(=O)[C@H](CCN)NC1=O)[C@@H](C)O [colistin]; assay: as above
# Method: (§2)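 Clinical P. aeruginosa isolates were grown as static biofilms for 24 h at 37 °C in LB in half-area 96-well plates, then exposed for 24 h to colistin at 1, 4, 16, 64, 256 or […]. Surviving CFU were counted by spotting serial dilutions. MCK is the lowest tested concentration giving the stated log reduction in CFU versus an untreated control; '>1024' means the reduction was not reached at the top dose, and 1 is the lowest dose tested (≤1).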
# tobramycin [4] = compound: T1, tobramycin; assay: minimum concentration eradicating biofilm below detection limit (MCK-E); higher = more biofilm tolerance
# Method: as §1
# colistin [5] = compound: T2, colistin; assay: as above
# Method: as §2
# tobramycin [6] = compound: T1, tobramycin; assay: minimum concentration of killing, 1-log CFU reduction of biofilm (MCK90); higher = more biofilm tolerance
# Method: as §1
# colistin [7] = compound: T2, colistin; assay: minimum concentration of killing, 4-log CFU reduction of biofilm (MCK99.99); higher = more biofilm tolerance
# Method: as §2
# colistin [8] = compound: T2, colistin; assay: minimum concentration of killing, 1-log CFU reduction of biofilm (MCK90); higher = more biofilm tolerance
# Method: as §2
test system,measurement,setting,value
Pseudomonas aeruginosa clinical isolate CH2660,minimum concentration of killing,tobramycin [1],64 µg/mL
same,minimum concentration of killing,tobramycin [2],64 µg/mL
same,minimum concentration of killing,colistin [3],256 µg/mL
same,minimum concentration eradicating biofilm below detection limit,tobramycin [4],256 µg/mL
same,minimum concentration eradicating biofilm below detection limit,colistin [5],256 µg/mL
same,minimum concentration of killing,tobramycin [6],4 µg/mL
same,minimum concentration of killing,colistin [7],256 µg/mL
same,minimum concentration of killing,colistin [8],64 µg/mL
Pseudomonas aeruginosa clinical isolate ESP076,minimum concentration of killing,tobramycin [1],> 1020 µg/mL
same,minimum concentration of killing,tobramycin [2],> 1020 µg/mL
same,minimum concentration of killing,colistin [3],256 µg/mL
same,minimum concentration eradicating biofilm below detection limit,tobramycin [4],> 1020 µg/mL
same,minimum concentration eradicating biofilm below detection limit,colistin [5],256 µg/mL
same,minimum concentration of killing,tobramycin [6],> 1020 µg/mL
same,minimum concentration of killing,colistin [7],256 µg/mL
same,minimum concentration of killing,colistin [8],256 µg/mL
Pseudomonas aeruginosa clinical isolate ESP020,minimum concentration of killing,tobramycin [1],256 µg/mL
same,minimum concentration of killing,tobramycin [2],256 µg/mL
same,minimum concentration of killing,colistin [3],256 µg/mL
same,minimum concentration eradicating biofilm below detection limit,tobramycin [4],256 µg/mL
same,minimum concentration eradicating biofilm below detection limit,colistin [5],256 µg/mL
same,minimum concentration of killing,tobramycin [6],4 µg/mL
same,minimum concentration of killing,colistin [7],256 µg/mL
same,minimum concentration of killing,colistin [8],64 µg/mL
Pseudomonas aeruginosa clinical isolate F2003,minimum concentration of killing,tobramycin [1],256 µg/mL
same,minimum concentration of killing,tobramycin [2],4 µg/mL
same,minimum concentration of killing,colistin [3],256 µg/mL
same,minimum concentration eradicating biofilm below detection limit,tobramycin [4],1020 µg/mL
same,minimum concentration eradicating biofilm below detection limit,colistin [5],1020 µg/mL
same,minimum concentration of killing,tobramycin [6],≤ 1 µg/mL
same,minimum concentration of killing,colistin [7],1020 µg/mL
same,minimum concentration of killing,colistin [8],64 µg/mL
Pseudomonas aeruginosa clinical isolate ESP093,minimum concentration of killing,tobramycin [1],> 1020 µg/mL
same,minimum concentration of killing,tobramycin [2],1020 µg/mL
same,minimum concentration of killing,colistin [3],64 µg/mL
same,minimum concentration eradicating biofilm below detection limit,tobramycin [4],> 1020 µg/mL
same,minimum concentration eradicating biofilm below detection limit,colistin [5],256 µg/mL
same,minimum concentration of killing,tobramycin [6],4 µg/mL
same,minimum concentration of killing,colistin [7],256 µg/mL
same,minimum concentration of killing,colistin [8],16 µg/mL
Pseudomonas aeruginosa clinical isolate ESP022,minimum concentration of killing,tobramycin [1],16 µg/mL
same,minimum concentration of killing,tobramycin [2],16 µg/mL
same,minimum concentration of killing,colistin [3],256 µg/mL
same,minimum concentration eradicating biofilm below detection limit,tobramycin [4],256 µg/mL
same,minimum concentration eradicating biofilm below detection limit,colistin [5],256 µg/mL
same,minimum concentration of killing,tobramycin [6],16 µg/mL
same,minimum concentration of killing,colistin [7],256 µg/mL
same,minimum concentration of killing,colistin [8],256 µg/mL
Pseudomonas aeruginosa clinical isolate ESP015,minimum concentration of killing,tobramycin [1],256 µg/mL
same,minimum concentration of killing,tobramycin [2],64 µg/mL
same,minimum concentration of killing,colistin [3],256 µg/mL
same,minimum concentration eradicating biofilm below detection limit,tobramycin [4],256 µg/mL
same,minimum concentration eradicating biofilm below detection limit,colistin [5],256 µg/mL
same,minimum concentration of killing,tobramycin [6],4 µg/mL
same,minimum concentration of killing,colistin [7],256 µg/mL
same,minimum concentration of killing,colistin [8],64 µg/mL
Pseudomonas aeruginosa clinical isolate ESP028,minimum concentration of killing,tobramycin [1],1020 µg/mL
same,minimum concentration of killing,tobramycin [2],256 µg/mL
same,minimum concentration of killing,colistin [3],256 µg/mL
same,minimum concentration eradicating biofilm below detection limit,tobramycin [4],1020 µg/mL
same,minimum concentration eradicating biofilm below detection limit,colistin [5],256 µg/mL
same,minimum concentration of killing,tobramycin [6],16 µg/mL
same,minimum concentration of killing,colistin [7],256 µg/mL
same,minimum concentration of killing,colistin [8],256 µg/mL
Pseudomonas aeruginosa clinical isolate F2006,minimum concentration of killing,tobramycin [1],64 µg/mL
same,minimum concentration of killing,tobramycin [2],≤ 1 µg/mL
same,minimum concentration of killing,colistin [3],64 µg/mL
same,minimum concentration eradicating biofilm below detection limit,tobramycin [4],64 µg/mL
same,minimum concentration eradicating biofilm below detection limit,colistin [5],256 µg/mL
same,minimum concentration of killing,tobramycin [6],≤ 1 µg/mL
same,minimum concentration of killing,colistin [7],256 µg/mL
same,minimum concentration of killing,colistin [8],64 µg/mL
Pseudomonas aeruginosa clinical isolate F1856,minimum concentration of killing,tobramycin [1],1020 µg/mL
same,minimum concentration of killing,tobramycin [2],1020 µg/mL
same,minimum concentration of killing,colistin [3],16 µg/mL
same,minimum concentration eradicating biofilm below detection limit,tobramycin [4],1020 µg/mL
same,minimum concentration eradicating biofilm below detection limit,colistin [5],64 µg/mL
same,minimum concentration of killing,tobramycin [6],256 µg/mL
same,minimum concentration of killing,colistin [7],64 µg/mL
same,minimum concentration of killing,colistin [8],4 µg/mL
Pseudomonas aeruginosa clinical isolate F1862,minimum concentration of killing,tobramycin [1],256 µg/mL
same,minimum concentration of killing,tobramycin [2],256 µg/mL
same,minimum concentration of killing,colistin [3],256 µg/mL
same,minimum concentration eradicating biofilm below detection limit,tobramycin [4],256 µg/mL
same,minimum concentration eradicating biofilm below detection limit,colistin [5],256 µg/mL
same,minimum concentration of killing,tobramycin [6],64 µg/mL
same,minimum concentration of killing,colistin [7],256 µg/mL
same,minimum concentration of killing,colistin [8],256 µg/mL
Pseudomonas aeruginosa clinical isolate CH2597,minimum concentration of killing,tobramycin [1],256 µg/mL
same,minimum concentration of killing,tobramycin [2],256 µg/mL
same,minimum concentration of killing,colistin [3],256 µg/mL
same,minimum concentration eradicating biofilm below detection limit,tobramycin [4],256 µg/mL
same,minimum concentration eradicating biofilm below detection limit,colistin [5],256 µg/mL
same,minimum concentration of killing,tobramycin [6],256 µg/mL
same,minimum concentration of killing,colistin [7],256 µg/mL
same,minimum concentration of killing,colistin [8],256 µg/mL
Pseudomonas aeruginosa clinical isolate ESP013,minimum concentration of killing,tobramycin [1],> 1020 µg/mL
same,minimum concentration of killing,tobramycin [2],> 1020 µg/mL
same,minimum concentration of killing,colistin [3],64 µg/mL
same,minimum concentration eradicating biofilm below detection limit,tobramycin [4],> 1020 µg/mL
same,minimum concentration eradicating biofilm below detection limit,colistin [5],1020 µg/mL
same,minimum concentration of killing,tobramycin [6],> 1020 µg/mL
same,minimum concentration of killing,colistin [7],256 µg/mL
same,minimum concentration of killing,colistin [8],64 µg/mL
Pseudomonas aeruginosa clinical isolate ESP058,minimum concentration of killing,tobramycin [1],64 µg/mL
same,minimum concentration of killing,tobramycin [2],16 µg/mL
same,minimum concentration of killing,colistin [3],256 µg/mL
same,minimum concentration eradicating biofilm below detection limit,tobramycin [4],64 µg/mL
same,minimum concentration eradicating biofilm below detection limit,colistin [5],256 µg/mL
same,minimum concentration of killing,tobramycin [6],4 µg/mL
same,minimum concentration of killing,colistin [7],256 µg/mL
same,minimum concentration of killing,colistin [8],256 µg/mL
